From patent EP0599152A1, “Triazinones and Triazinophthalazinones possessing antiasthmatic/antiallergic, positive inotropic and antihypertensive activities” (ASTA Medica Aktiengesellschaft, priority 1992, dated 1994)

Legend:
Spätphaseneosinophile = test: inhibition of late-phase eosinophils in guinea pigs (Cartwright; eosinophil counting); assay type: in vivo, Meerschweinchen; conditions: 30 mg pro Kilogramm Körpergewicht, p.o.
Description: (§1) Die Verbindung gemäß Beispiel 16 zeigt im Versuch der Hemmung der Spätphaseneosinophile in Meerschweinchen gemäß der Vorschrift von Cartwright, Diagnostic Laboratory Hematology, 1968, S. 48 und Mac Fortare et al, Eosinophil Counting, Brit. Med. 9., 2, 1187 (1951) in der Dosis von 30 mg pro Kilogramm Körpergewicht, gegeben p.o., einen Hemmwert von 80 %. Bei der Hemmung der LTD-4-Rezeptor-Bindung gemäß Borbe und Zierenberg, Pharmacopsychiatry 18, 314 319 (1985) ergab sich eine Hemmung von 50 % der Aktivität bei einer Konzentration von 7,4 µmol/l.

LTD-4-Rezeptor = biological target: T1, LTD-4-Rezeptor (Homo sapiens, UniProt Q9Y271); test: inhibition of LTD-4 receptor binding (Borbe and Zierenberg); conditions: read-out: Hemmung von 50 % der Aktivität bei einer Konzentration von
T1 sequence (Q9Y271 1-337): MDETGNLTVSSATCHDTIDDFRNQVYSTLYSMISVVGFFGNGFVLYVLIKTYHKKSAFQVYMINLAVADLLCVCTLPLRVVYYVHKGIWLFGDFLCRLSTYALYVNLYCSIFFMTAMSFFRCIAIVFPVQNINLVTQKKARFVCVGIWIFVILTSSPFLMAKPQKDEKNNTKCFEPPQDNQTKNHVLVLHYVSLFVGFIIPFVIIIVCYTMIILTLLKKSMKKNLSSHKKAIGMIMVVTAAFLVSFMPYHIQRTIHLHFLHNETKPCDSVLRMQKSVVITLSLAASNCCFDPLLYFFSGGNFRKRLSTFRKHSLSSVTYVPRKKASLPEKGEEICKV
Description: as §1

[1] = test system: Histamin-Freisetzung aus Mastzellen; test: allergically induced histamine release (sensitised rats, method of Shore et al.); assay type: cell-based, Ratten; conditions: Mast cell, concentration 10 µmol/l, read-out: Hemmung der Freisetzung
Text: Die pharmakologische Testung auf Wirksamkeit bei der allergisch induzierten Histaminfreisetzung an sensibilisierten Ratten erfolgte gemäß der Versuchsvorschrift von P.A. Shore et al., I. Pharmacol. Exp. Ther., 127 (1959), S. 182.
Die Verbindung gemäß gemaß Beispiel 1 zeigt folgende Werte: Bei der allergisch induzierten Histamin-Freisetzung ergibt ein Konzentration 10 µmol/l eine 25 % - Hemmung der Freisetzung.

SMILES	Hemmwert (Spätphaseneosinophile) [%]	IC50 (LTD-4-Rezeptor) [µM]	inhibition at 10 µM [1] [%]
CN1CC(=O)NN=C1c1ccc(OCc2ccc3ccccc3n2)c(Cl)c1 [Beispiel 16, 3-{3-Chlor-4-[(2-chinolyl)methoxy]phenyl}-4-methyl-4,5-dihydro-1,2,4-triazin-6-on]	80	7.4	–
O=C1CN2N=C(c3ccccc3)c3ccccc3C2=NN1 [Beispiel 1, 7-Phenyl-2H-triazino(3,4a)phthalazin-3(4H)-on]	–	–	25
